Activity calls are given as the source filed them. The calls are words filed in the database; no cut-off is given here.
What was measured:
[1] = tested on: Salmonella typhimurium; assay: Mutagenicity against Salmonella typhimurium TA98 assessed as revertants at 40 uM incubated for 90 mins followed by drug washout measured after 2 days relative to positive control; type: toxicity, organism-based; settings: salmonella enterica subsp. enterica serovar typhimurium
[2] = tested on: Plasmodium falciparum; assay: Antiplasmodial activity against chloroquine-sensitive Plasmodium falciparum NF54 infected in human erythrocytes assessed as inhibition of [3H]hypoxanthine incorporation incubated for 48 hrs prior to [3H]hypoxanthine addition measured after 48 hrs by liquid scintillation counting; type: functional, organism-based
[3] = tested on: Salmonella typhimurium; assay: Mutagenicity against Salmonella typhimurium TA100 assessed as revertants at 24 uM incubated for 90 mins followed by drug washout measured after 2 days relative to positive control; type: toxicity, organism-based; settings: salmonella enterica subsp. enterica serovar typhimurium
[4] = tested on: Salmonella typhimurium; assay: Mutagenicity against Salmonella typhimurium TA98 assessed as revertants at 61 uM incubated for 90 mins followed by drug washout measured after 2 days relative to positive control; type: toxicity, organism-based; settings: salmonella enterica subsp. enterica serovar typhimurium, 1.5 h
[5] = tested on: Salmonella typhimurium; assay: Mutagenicity against Salmonella typhimurium TA100 assessed as revertants at 80 uM incubated for 90 mins followed by drug washout measured after 2 days relative to positive control; type: toxicity, organism-based; settings: salmonella enterica subsp. enterica serovar typhimurium
[6] = tested on: Plasmodium berghei; assay: Antimalarial activity against Plasmodium berghei ANKA expressing GFP infected in mouse assessed as cure from infection at 100 mg/kg, po administered 24 hrs post-infection measured on day 30; type: functional, organism-based; parameters: dose 100 mg/kg
[7] = tested on: Plasmodium falciparum; assay: Antiplasmodial activity against chloroquine-resistant Plasmodium falciparum K1 infected in human erythrocytes assessed as inhibition of [3H]hypoxanthine incorporation incubated for 48 hrs prior to [3H]hypoxanthine addition measured after 48 hrs by liquid scintillation counting; type: functional, organism-based
[8] = target: T1, Chloroquine resistance transporter (Plasmodium falciparum) (UniProt Q9N623); assay: Inhibition of chloroquine-resistant Plasmodium falciparum Dd2 CRT expressed in Xenopus laevis oocyte assessed as inhibition of [3H]chloroquine uptake at 100 uM measured from 1 to 2 hrs
T1 sequence (whole entry): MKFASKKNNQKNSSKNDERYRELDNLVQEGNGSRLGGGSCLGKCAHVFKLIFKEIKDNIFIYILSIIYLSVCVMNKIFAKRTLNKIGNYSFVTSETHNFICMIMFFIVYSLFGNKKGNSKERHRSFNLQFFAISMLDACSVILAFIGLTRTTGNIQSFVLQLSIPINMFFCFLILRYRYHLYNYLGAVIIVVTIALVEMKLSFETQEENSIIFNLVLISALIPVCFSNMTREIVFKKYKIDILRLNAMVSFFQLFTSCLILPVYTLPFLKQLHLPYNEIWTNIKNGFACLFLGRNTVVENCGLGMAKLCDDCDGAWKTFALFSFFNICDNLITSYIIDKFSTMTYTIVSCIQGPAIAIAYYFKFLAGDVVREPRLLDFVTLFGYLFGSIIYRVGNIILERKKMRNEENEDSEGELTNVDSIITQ

[9] = tested on: Plasmodium berghei; assay: Antimalarial activity against Plasmodium berghei ANKA expressing GFP infected in mouse assessed as cure from infection at 30 mg/kg, po administered 24 hrs post-infection measured on day 30; type: functional, organism-based; parameters: dose 30 mg/kg
[10] = tested on: Plasmodium berghei; assay: Antimalarial activity against Plasmodium berghei ANKA expressing GFP infected in mouse assessed as reduction in parasitemia at 30 mg/kg, po administered 24 hrs post-infection measured 48 hrs post-dosing by flow cytometric analysis; type: functional; parameters: scale not given: the % may be the effect or the level left
[11] = tested on: Plasmodium berghei; assay: Antimalarial activity against Plasmodium berghei ANKA expressing GFP infected in mouse assessed as mean survival days at 30 mg/kg, po administered 24 hrs post-infection (reference value: 6 to 7 days); type: functional
[12] = tested on: Plasmodium falciparum; assay: Antiplasmodial activity against chloroquine-sensitive Plasmodium falciparum D10 infected in human RBC after 72 hrs by parasite lactate dehydrogenase assay; type: functional, organism-based; settings: D10, 72 h
[13] = Cytotoxicity against mouse NIH3T3 cells after 24 hrs by neutral red dye uptake assay; type: cell-based; settings: read-out: TC50
[14] = tested on: Plasmodium berghei; assay: Antimalarial activity against Plasmodium berghei ANKA expressing GFP infected in mouse assessed as mean survival days at 100 mg/kg, po administered 24 hrs post-infection (reference value: 6 to 7 days); type: functional
[15] = tested on: Salmonella typhimurium; assay: Mutagenicity against Salmonella typhimurium TA100 assessed as revertants at 7 uM incubated for 90 mins followed by drug washout measured after 2 days relative to positive control; type: toxicity, organism-based; settings: salmonella enterica subsp. enterica serovar typhimurium, 1.5 h
[16] = tested on: Salmonella typhimurium; assay: Mutagenicity against Salmonella typhimurium TA100 assessed as revertants at 15 uM incubated for 90 mins followed by drug washout measured after 2 days relative to positive control; type: toxicity, organism-based; settings: salmonella enterica subsp. enterica serovar typhimurium
[17] = tested on: Salmonella typhimurium; assay: Mutagenicity against Salmonella typhimurium TA98 assessed as revertants at 7 uM incubated for 90 mins followed by drug washout measured after 2 days relative to positive control; type: toxicity, organism-based; settings: salmonella enterica subsp. enterica serovar typhimurium
[18] = tested on: Plasmodium berghei; assay: Antimalarial activity against Plasmodium berghei ANKA expressing GFP infected in mouse assessed as reduction in parasitemia at 100 mg/kg, po administered 24 hrs post-infection measured 48 hrs post-dosing by flow cytometric analysis; type: functional; parameters: scale not given: the % may be the effect or the level left
[19] = tested on: Salmonella typhimurium; assay: Mutagenicity against Salmonella typhimurium TA100 assessed as revertants at 40 uM incubated for 90 mins followed by drug washout measured after 2 days relative to positive control; type: toxicity, organism-based; settings: salmonella enterica subsp. enterica serovar typhimurium
[20] = tested on: Salmonella typhimurium; assay: Mutagenicity against Salmonella typhimurium TA100 assessed as revertants at 61 uM incubated for 90 mins followed by drug washout measured after 2 days relative to positive control; type: toxicity, organism-based; settings: salmonella enterica subsp. enterica serovar typhimurium
[21] = Cytotoxicity against human HepG2 cells after 24 hrs by neutral red dye uptake assay; type: cell-based; settings: read-out: TC50
[22] = tested on: Salmonella typhimurium; assay: Mutagenicity against Salmonella typhimurium TA98 assessed as revertants at 15 uM incubated for 90 mins followed by drug washout measured after 2 days relative to positive control; type: toxicity, organism-based; settings: salmonella enterica subsp. enterica serovar typhimurium
[23] = tested on: Salmonella typhimurium; assay: Mutagenicity against Salmonella typhimurium TA98 assessed as revertants at 80 uM incubated for 90 mins followed by drug washout measured after 2 days relative to positive control; type: toxicity, organism-based; settings: salmonella enterica subsp. enterica serovar typhimurium, 1.5 h
[24] = tested on: Salmonella typhimurium; assay: Mutagenicity against Salmonella typhimurium TA98 assessed as revertants at 24 uM incubated for 90 mins followed by drug washout measured after 2 days relative to positive control; type: toxicity, organism-based; settings: salmonella enterica subsp. enterica serovar typhimurium, 1.5 h
[25] = tested on: Plasmodium falciparum; assay: Antiplasmodial activity against chloroquine-resistant Plasmodium falciparum W2 infected in human RBC after 72 hrs by parasite lactate dehydrogenase assay; type: functional, organism-based; settings: W2, 72 h
[26] = tested on: Salmonella typhimurium; assay: Mutagenicity against Salmonella typhimurium TA100 assessed as revertants at 25 uM incubated for 90 mins followed by drug washout measured after 2 days relative to positive control; type: toxicity, organism-based; settings: salmonella enterica subsp. enterica serovar typhimurium
[27] = tested on: Salmonella typhimurium; assay: Mutagenicity against Salmonella typhimurium TA98 assessed as revertants at 6 uM incubated for 90 mins followed by drug washout measured after 2 days relative to positive control; type: toxicity, organism-based; settings: salmonella enterica subsp. enterica serovar typhimurium, 1.5 h
[28] = tested on: Salmonella typhimurium; assay: Mutagenicity against Salmonella typhimurium TA98 assessed as revertants at 1.5 uM incubated for 90 mins followed by drug washout measured after 2 days relative to positive control; type: toxicity, organism-based; settings: salmonella enterica subsp. enterica serovar typhimurium, 1.5 h
[29] = tested on: Salmonella typhimurium; assay: Mutagenicity against Salmonella typhimurium TA100 assessed as revertants at 13 uM incubated for 90 mins followed by drug washout measured after 2 days relative to positive control; type: toxicity, organism-based; settings: salmonella enterica subsp. enterica serovar typhimurium
[30] = tested on: Salmonella typhimurium; assay: Mutagenicity against Salmonella typhimurium TA98 assessed as revertants at 50 uM incubated for 90 mins followed by drug washout measured after 2 days relative to positive control; type: toxicity, organism-based; settings: salmonella enterica subsp. enterica serovar typhimurium, 1.5 h
[31] = tested on: Salmonella typhimurium; assay: Mutagenicity against Salmonella typhimurium TA100 assessed as revertants at 50 uM incubated for 90 mins followed by drug washout measured after 2 days relative to positive control; type: toxicity, organism-based; settings: salmonella enterica subsp. enterica serovar typhimurium
[32] = tested on: Salmonella typhimurium; assay: Mutagenicity against Salmonella typhimurium TA100 assessed as revertants at 1.5 uM incubated for 90 mins followed by drug washout measured after 2 days relative to positive control; type: toxicity, organism-based; settings: salmonella enterica subsp. enterica serovar typhimurium, 1.5 h
[33] = tested on: Salmonella typhimurium; assay: Mutagenicity against Salmonella typhimurium TA100 assessed as revertants at 6 uM incubated for 90 mins followed by drug washout measured after 2 days relative to positive control; type: toxicity, organism-based; settings: salmonella enterica subsp. enterica serovar typhimurium, 1.5 h
[34] = tested on: Salmonella typhimurium; assay: Mutagenicity against Salmonella typhimurium TA98 assessed as revertants at 13 uM incubated for 90 mins followed by drug washout measured after 2 days relative to positive control; type: toxicity, organism-based; settings: salmonella enterica subsp. enterica serovar typhimurium, 1.5 h
[35] = tested on: Salmonella typhimurium; assay: Mutagenicity against Salmonella typhimurium TA98 assessed as revertants at 3 uM incubated for 90 mins followed by drug washout measured after 2 days relative to positive control; type: toxicity, organism-based; settings: salmonella enterica subsp. enterica serovar typhimurium, 1.5 h
[36] = tested on: Salmonella typhimurium; assay: Mutagenicity against Salmonella typhimurium TA98 assessed as revertants at 25 uM incubated for 90 mins followed by drug washout measured after 2 days relative to positive control; type: toxicity, organism-based; settings: salmonella enterica subsp. enterica serovar typhimurium
[37] = tested on: Salmonella typhimurium; assay: Mutagenicity against Salmonella typhimurium TA100 assessed as revertants at 3 uM incubated for 90 mins followed by drug washout measured after 2 days relative to positive control; type: toxicity, organism-based; settings: salmonella enterica subsp. enterica serovar typhimurium, 1.5 h

Clc1ccc2c(NC(c3ccccc3)(c3ccc(CN4CCCC4)c(Cl)c3)c3ccc(CN4CCCC4)c(Cl)c3)ccnc2c1
Activity [1]: 3%
IC50 [2]: 9.5 nM
Activity [3]: 6%
Activity [4]: 5%
Activity [5]: 0%
Activity [6]: inactive
IC50 [7]: 8.4 nM
inhibition [8]: 72%
Activity [9]: inactive
Activity [10]: 99.4%
MSD [11]: 7 days
IC50 [12]: 26 nM
CC50 at 24 h [13]: 15000 nM
MSD [14]: 21.3 days
Activity [15]: 4%
Activity [16]: 5%
Activity [17]: 1%
Activity [18]: 99.3%
Activity [19]: 4%
Activity [20]: 4%
CC50 at 24 h [21]: 6100 nM
Activity [22]: 1%
Activity [23]: 0%
Activity [24]: 5%
IC50 [25]: 52 nM

Fc1cc(C(Nc2ccnc3cc(Cl)ccc23)c2ccc(Cl)cc2)ccc1CN1CCCC1 (racemic)
Activity [26]: 11%
IC50 [2]: 13 nM
Activity [27]: 3%
IC50 [7]: 20 nM
inhibition [8]: 70%
Activity [28]: 4%
Activity [29]: 11%
IC50 [12]: 59 nM
Activity [30]: 8%
CC50 at 24 h [13]: 25000 nM
Activity [31]: 11%
Activity [32]: 12%
Activity [33]: 10%
Activity [34]: 3%
Activity [35]: 5%
Activity [36]: 11%
CC50 at 24 h [21]: 12000 nM
IC50 [25]: 45 nM
Activity [37]: 10%

— ChEMBL document CHEMBL2169878 (J Med Chem, 2012)
